According to publication PMC3578785, “Improved BM212 MmpL3 Inhibitor Analogue Shows Efficacy in Acute Murine Model of Tuberculosis Infection” (PLoS ONE, 2013):

Key:
[1] = in vitro; format: in vitro ADME, mouse
Description: (§1) Protocol S6. Microsomal fraction stability experimental procedure.
(§2) Pooled mouse and human liver microsomes are purchased from Xenotech. Microsomes (final protein concentration 0.5 mg/mL, MgCl2 (final concentration = 5 mM) and test compound (final substrate concentration = 0.5 µM; final DMSO concentration = 0.5%) in 0.1M phosphate buffer pH 7.4 were pre-incubated at 37°C prior to the addition of NADPH (final concentration = 1 mM) to initiate the reaction. The final incubation volume was 600 µL. A control incubation was included for each compound tested where 0.1 M phosphate buffer pH 7.4 is added instead of NADPH (minus NADPH). One control compound was included with each species. All incubations were performed singularly for each test compound. Each compound was incubated for 30 minutes and samples (90 µL) of incubate were taken at 0, 5, 15, 20 and 30 min. The control (minus NADPH) was sampled at 30 min only. The reactions were stopped by the addition of sample to 200 µL Acetonitrile:Methanol 3:1 containing internal standard. The terminated samples were centrifuged at 2.500 rpm for 20 min at 4°C to precipitate the protein.
(§3) Quantitative Analysis: following protein precipitation, the samples were analyzed using specific […]
(§4) Data Analysis: from a plot of ln peak area ratio (compound peak area/internal standard peak area) against time, the gradient of the line was determined. Subsequently, half-life and intrinsic clearance were calculated using the equations below:
(§5) Elimination rate constant (k) = (- gradient)
(§6) Half life (t1/2) (min) = […]
(§7) Intrinsic Clearance (CLint) (mL/min/g protein) = […] where V=Incubation volume mL/g microsomal protein.

[2] = in vitro; format: in vitro ADME, human
Description: as §1, §2, §3, §4, §5, §6, §7

[3] = test system: HepG2 cells
[4] = test system: Vero cells
[5] = at 1 µM
[6] = target: human serum albumin (HSA) (Homo sapiens, UniProt P02768); format: in vitro ADME
Description: Standard physical chemical property determination methods were used. Please see the Supporting Information for details.
Protocol S4. Determination of compounds binding to human serum albumin (HSA).
The determination of compounds binding to human serum albumin (HSA) was carried out by retention time measurements using immobilized HSA HPLC columns obtained from Chiral Technologies Ltd, France. The column dimensions were 50x3 mm. The mobile phase was 50 mM ammonium acetate buffer pH 7.4 and HPLC grade 2-propanol. HPLC Method: flow rate 1.8 ml/min applying 2.5 min 2-propanol gradient up to 30%. From 2.5 min to 4.5 min the 2-propanol concentration in the mobile phase was kept at 30%. From 4.5 min to 4.6 min, the 2-propanol concentration was decreased to 0% and kept like that until the end of the gradient run which was 6 min. A calibration set of compounds was first analyzed for which plasma protein binding data were available: Warfarin, Nizatidine, Bromazepam, Carbamazepine, Budesonide, Nicardipine, Indomethacine, Piroxicam, Naproxen. The calculation of the HSA binding data expressed as %HSA was carried out as described previously.

[7] = Vero cytotoxicity assay (MTT); conditions: African green monkey, Vero cells
[8] = test system: H37Rv; set-up: species or system mice; conditions: mouse, in vivo, po
[9] = Oral pharmacokinetic studies in mice, peripheral total blood; conditions: female, C57BL/6, mouse, whole blood

human serum albumin (HSA), sequence (P02768 25-609): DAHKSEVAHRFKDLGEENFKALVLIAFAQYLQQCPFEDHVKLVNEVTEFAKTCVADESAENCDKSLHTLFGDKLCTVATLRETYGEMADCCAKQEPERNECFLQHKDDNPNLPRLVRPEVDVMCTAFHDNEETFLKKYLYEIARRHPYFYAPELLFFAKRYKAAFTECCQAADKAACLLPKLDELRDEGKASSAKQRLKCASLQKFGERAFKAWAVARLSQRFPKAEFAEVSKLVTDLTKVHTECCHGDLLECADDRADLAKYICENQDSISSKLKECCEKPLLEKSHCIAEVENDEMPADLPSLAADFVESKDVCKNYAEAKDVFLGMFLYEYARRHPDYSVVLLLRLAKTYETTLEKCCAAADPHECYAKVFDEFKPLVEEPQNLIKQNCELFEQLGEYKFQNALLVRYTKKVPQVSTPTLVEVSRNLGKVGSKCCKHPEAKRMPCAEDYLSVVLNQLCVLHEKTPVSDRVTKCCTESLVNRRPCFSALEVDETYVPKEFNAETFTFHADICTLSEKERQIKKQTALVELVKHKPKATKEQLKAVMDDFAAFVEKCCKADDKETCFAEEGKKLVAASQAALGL

COc1ccc(-c2cc(CN3CCOCC3)c(C)n2-c2ccc(C(C)C)cc2)cc1 [Compound 25]
CHILogD pH 2 (pH 2): 1.36
CHILogD pH 7.4 (pH 7.4): 4.36
CHILogD pH 10.5 (pH 10.5): 4.86
Cli mouse [1]: 10.55 mL/min/g
t1/2 in mouse microsomes ([1]; mouse microsomes): <5 min
Cli human [2]: 0.5 mL/min/g
t1/2 in human microsomes ([2]; human microsomes): >30 min
Tox50, cytotoxicity in HepG2 cells [3]: 15.9 µM
CC50 [4]: 12.9 µM
PPB (%) [5]: >99.9%
HSA (%) binding [6]: 97.02%

NNC(=O)c1ccncc1 [Isoniazid]
CC50 at 72 h [7]: > 256 µM
ED99 (dose that reduces 2 logs bacterial burden in the lungs of mice; 95% confidence interval in parenthesis) [8]: 0.95 (0.86–1.1 ) mg/kg
AUC(0-inf) ([9]; 0.98 mg/kg): 5.5 µM·h

COc1c(N2C[C@@H]3CCCN[C@@H]3C2)c(F)cc2c(=O)c(C(=O)O)cn(C3CC3)c12 [Moxifloxacin]
ED99 (dose that reduces 2 logs bacterial burden in the lungs of mice; 95% confidence interval in parenthesis) [8]: 28 (26–29) mg/kg
AUC(0-inf) ([9]; 27.5 mg/kg): 9.4 µM·h
